PMC12311259, “Antifibrotic effects of specific targeting of the 5‐hydroxytryptamine 2B receptor (5‐HT2BR) in murine models and ex vivo models of scleroderma skin” (Arthritis & Rheumatology (Hoboken, N.j.), 2025)

Legend:
[1] = target: Serotonin (5-Hydroxytryptamine) 5-HT4 (gp) (Cavia porcellus, UniProt O70528); assay: Receptor binding, Eurofins Panlabs 272000; design: species or system guinea pig
Text: (§1) Effects were considered significant if AM1476's mean value was three or more SDs above the vehicle control mean in the agonist assay or three or more SDs below the positive control agonist (5‐nM α‐methylserotonin) mean in the antagonist assay. AM1476 was screened for selectivity against approximately 200 targets using a Eurofins Panlabs Spectrum screen panel including enzymatic and receptor binding assays.

[2] = target: T1, Serotonin (5-Hydroxytryptamine) 5-HT7 (hu) (Homo sapiens, UniProt P34969); assay: Receptor binding, Eurofins Panlabs 272320
T1 construct: Eurofins Panlabs 272320
T1 sequence (P34969 whole entry): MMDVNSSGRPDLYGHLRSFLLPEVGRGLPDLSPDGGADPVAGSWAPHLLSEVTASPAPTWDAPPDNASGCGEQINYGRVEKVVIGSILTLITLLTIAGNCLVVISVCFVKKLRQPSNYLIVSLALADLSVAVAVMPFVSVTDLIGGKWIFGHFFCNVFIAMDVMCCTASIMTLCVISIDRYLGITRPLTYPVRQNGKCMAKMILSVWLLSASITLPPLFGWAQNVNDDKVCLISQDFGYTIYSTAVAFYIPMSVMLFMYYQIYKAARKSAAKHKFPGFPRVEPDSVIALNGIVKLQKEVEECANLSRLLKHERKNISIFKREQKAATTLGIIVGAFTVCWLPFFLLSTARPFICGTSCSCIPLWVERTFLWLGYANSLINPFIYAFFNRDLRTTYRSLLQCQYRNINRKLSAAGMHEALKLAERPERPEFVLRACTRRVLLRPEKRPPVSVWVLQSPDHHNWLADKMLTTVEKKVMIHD
Text: as §1

[3] = target: T2, Serotonin (5-Hydroxytryptamine) 5-HT1B (hu) (Homo sapiens, UniProt P28222); assay: Receptor binding, Eurofins Panlabs 271200
T2 construct: Eurofins Panlabs 271200
T2 sequence (P28222 whole entry): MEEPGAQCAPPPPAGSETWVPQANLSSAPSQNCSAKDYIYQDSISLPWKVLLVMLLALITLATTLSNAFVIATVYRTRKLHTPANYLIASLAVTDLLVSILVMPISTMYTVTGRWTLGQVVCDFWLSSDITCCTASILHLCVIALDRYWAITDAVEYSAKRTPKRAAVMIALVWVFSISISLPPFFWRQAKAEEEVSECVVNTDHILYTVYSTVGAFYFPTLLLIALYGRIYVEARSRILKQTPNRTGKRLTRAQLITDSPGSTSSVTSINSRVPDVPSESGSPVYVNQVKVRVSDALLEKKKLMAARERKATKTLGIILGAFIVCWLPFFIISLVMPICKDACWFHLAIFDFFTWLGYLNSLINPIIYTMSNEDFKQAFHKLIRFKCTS
Text: as §1

human 5-HT2AR [4] = target: T3, human 5-HT2AR (Homo sapiens, UniProt P28223); assay: Radioligand binding assay, CHO-K1 cells overexpressing human receptor (Eurofins Panlabs); conditions: read-out: inhibition constant (Ki), 5-HT2AR
T3 construct: 355250 (IP1); host or cells: CHO-K1
T3 sequence (P28223 whole entry): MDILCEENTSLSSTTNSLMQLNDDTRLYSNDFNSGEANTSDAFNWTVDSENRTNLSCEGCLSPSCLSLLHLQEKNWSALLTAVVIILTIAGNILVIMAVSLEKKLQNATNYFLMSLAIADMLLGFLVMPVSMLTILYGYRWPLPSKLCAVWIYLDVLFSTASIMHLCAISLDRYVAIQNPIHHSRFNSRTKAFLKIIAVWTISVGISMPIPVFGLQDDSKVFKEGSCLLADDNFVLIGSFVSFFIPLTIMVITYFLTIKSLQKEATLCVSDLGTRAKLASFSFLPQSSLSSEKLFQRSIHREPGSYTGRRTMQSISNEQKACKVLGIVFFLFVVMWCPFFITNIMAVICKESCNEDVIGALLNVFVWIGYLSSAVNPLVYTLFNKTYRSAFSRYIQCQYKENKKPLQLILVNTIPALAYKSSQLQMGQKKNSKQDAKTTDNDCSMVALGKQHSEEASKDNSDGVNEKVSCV
Procedure: (§2) The binding profile of AM1476 was evaluated for binding to human 5‐HT2AR, 5‐HT2BR, and 5‐HT2CR in radioligand binding assays using Chinese hamster ovary (CHO‐K1) cells overexpressing human receptors (in vitro assays 271650, 271700, and 271800; Eurofins Panlabs Discovery). AM1476 was evaluated at 0.1, 1, 10, 100, 1,000, and 10,000 nM (5‐HT2BR) or at 1, 10, 100, 1,000, and 10,000 nM (5‐HT2AR and 5‐HT2CR). Human 5‐HT2AR and 5‐HT2BR functionality was measured with homogeneous time‐resolved fluorescence quantification of IP1 accumulation in CHO‐K1 cells (in vitro assays 355250 and 355260). Compounds creating a ≥50% inhibition of 5‐HT (5 nM) induced fluorescence response specified receptor antagonist activity. 5‐HT2CR functionality was assessed with [35S] GTPγS for quantification of bound GTPγS. Compounds creating a ≥50% inhibition of 5‐HT (100 nM) induced [35S] GTPγS binding response specified receptor antagonist activity (in vitro assay 355200). AM1476 was evaluated at 0.1, 0.3, 1, 3, 10, 30, and 300 nM (5‐HT2BR) or 1, 10, 100, 1,000, and 10,000 nM (5‐HT2AR and 5‐HT2CR). A nonlinear least squares regression analysis was used to determine half‐maximal inhibitory concentration (IC50) values. Mouse 5‐HT2BR functionality was measured in a calcium influx assay (Charles River) in CHO‐KI cells expressing the mouse 5‐HT2BR using a calcium sensitive dye and a fluorescence imaging plate reader (FLIPRTETRA) instrument. AM1476 was evaluated at 0.3, 1, 3, 10, 30, 100, 300, and 1,000 nM.

human 5-HT2BR = target: T4, human 5-HT2BR (Homo sapiens, UniProt P41595); assay: as above; conditions: read-out: inhibition constant (Ki), human 5-HT2BR
T4 construct: 355260 (IP1); host or cells: CHO-K1
T4 sequence (P41595 whole entry): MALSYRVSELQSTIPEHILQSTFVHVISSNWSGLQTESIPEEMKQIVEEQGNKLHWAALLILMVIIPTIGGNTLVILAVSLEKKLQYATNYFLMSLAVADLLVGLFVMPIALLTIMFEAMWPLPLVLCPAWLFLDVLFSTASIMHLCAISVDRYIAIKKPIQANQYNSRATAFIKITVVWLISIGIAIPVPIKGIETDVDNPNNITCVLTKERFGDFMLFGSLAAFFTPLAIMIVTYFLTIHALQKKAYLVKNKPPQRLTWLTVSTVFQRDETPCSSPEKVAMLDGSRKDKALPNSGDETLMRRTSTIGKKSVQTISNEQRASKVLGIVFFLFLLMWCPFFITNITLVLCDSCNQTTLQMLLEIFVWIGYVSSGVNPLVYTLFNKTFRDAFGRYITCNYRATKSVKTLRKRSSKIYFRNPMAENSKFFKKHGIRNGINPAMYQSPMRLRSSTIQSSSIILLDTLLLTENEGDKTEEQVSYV
Procedure: as §2

5-HT2CR [5] = target: T5, 5-HT2CR (Homo sapiens, UniProt P28335); assay: as above; conditions: read-out: inhibition constant (Ki), 5-HT2CR
T5 construct: 355200 (GTPγS); host or cells: CHO-K1
T5 sequence (P28335 33-458): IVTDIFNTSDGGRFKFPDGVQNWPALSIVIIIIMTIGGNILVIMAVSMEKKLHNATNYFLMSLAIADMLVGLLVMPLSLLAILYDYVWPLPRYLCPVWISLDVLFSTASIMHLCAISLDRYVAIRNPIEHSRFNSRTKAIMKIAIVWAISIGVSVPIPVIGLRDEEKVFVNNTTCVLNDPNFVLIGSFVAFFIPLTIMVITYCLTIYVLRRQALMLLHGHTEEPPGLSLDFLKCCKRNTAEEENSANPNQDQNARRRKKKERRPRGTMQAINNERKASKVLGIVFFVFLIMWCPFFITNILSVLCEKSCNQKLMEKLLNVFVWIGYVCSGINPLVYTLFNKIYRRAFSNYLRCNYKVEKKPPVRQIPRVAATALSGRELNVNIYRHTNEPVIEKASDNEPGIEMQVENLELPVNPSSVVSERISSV
Procedure: as §2

human 5-HT2AR [6] = target: T3, human 5-HT2AR; assay: Functionality assay, HTRF quantification of IP1 accumulation in CHO-K1 cells; assay type: cell-based; conditions: inhibition of 5-HT (5 nM) induced IP1 response, read-out: IC50, antagonistic activity, human 5-HT2A
Procedure: as §2, with “A nonlinear least squares regression analysis was used to determine half‐maximal inhibitory concentration (IC50) values.” left out

5-HT2CR [7] = target: T5, 5-HT2CR; assay: Functionality assay, [35S]GTPγS binding; assay type: biochemical; conditions: inhibition of 5-HT (100 nM) induced [35S]GTPγS binding; read-out: IC50, antagonistic activity, human 5-HT2C
Procedure: as §2, with “A nonlinear least squares regression analysis was used to determine half‐maximal inhibitory concentration (IC50) values.” left out

[8] = target: T6, Uptake, Norepinephrine (hu) (Homo sapiens, UniProt P23975); assay: Functionality assay, Uptake, Eurofins Panlabs 302000; assay type: cell-based
T6 construct: Eurofins Panlabs 302000
T6 sequence (P23975 whole entry): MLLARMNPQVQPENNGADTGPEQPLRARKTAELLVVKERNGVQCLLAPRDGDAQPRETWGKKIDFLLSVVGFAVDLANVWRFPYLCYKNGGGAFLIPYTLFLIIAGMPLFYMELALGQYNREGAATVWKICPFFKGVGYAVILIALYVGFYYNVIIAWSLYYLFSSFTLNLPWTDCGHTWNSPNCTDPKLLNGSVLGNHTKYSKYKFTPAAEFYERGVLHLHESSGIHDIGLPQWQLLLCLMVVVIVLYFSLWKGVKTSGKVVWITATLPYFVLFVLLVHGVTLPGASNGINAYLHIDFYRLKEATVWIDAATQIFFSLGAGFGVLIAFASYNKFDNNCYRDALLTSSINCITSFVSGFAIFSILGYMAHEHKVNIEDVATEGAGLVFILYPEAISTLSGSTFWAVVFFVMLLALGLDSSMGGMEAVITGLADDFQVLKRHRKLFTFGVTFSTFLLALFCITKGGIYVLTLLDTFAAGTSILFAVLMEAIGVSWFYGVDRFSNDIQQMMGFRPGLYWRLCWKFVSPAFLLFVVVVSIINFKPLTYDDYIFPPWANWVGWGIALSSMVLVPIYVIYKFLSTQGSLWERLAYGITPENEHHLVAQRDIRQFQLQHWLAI
Text: as §1

Chain of Serotonin (5-Hydroxytryptamine) 5-HT4 (gp) (O70528 1-358 limits assumed): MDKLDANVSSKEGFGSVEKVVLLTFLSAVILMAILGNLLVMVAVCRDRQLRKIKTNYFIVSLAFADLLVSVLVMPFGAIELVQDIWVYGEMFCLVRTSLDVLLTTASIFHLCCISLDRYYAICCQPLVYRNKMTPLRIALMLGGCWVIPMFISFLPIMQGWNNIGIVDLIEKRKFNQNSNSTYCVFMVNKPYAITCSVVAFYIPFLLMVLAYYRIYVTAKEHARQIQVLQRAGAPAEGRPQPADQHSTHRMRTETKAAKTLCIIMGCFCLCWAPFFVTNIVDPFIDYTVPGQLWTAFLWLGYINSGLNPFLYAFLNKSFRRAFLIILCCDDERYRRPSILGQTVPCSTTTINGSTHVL

## C[C@@H]1CN(C(=N)N)N=C1c1ccc(F)cc1O [AM1476]
[1]; 1 µM (value in brackets)
  % Inhibition at 1 µM, 5-HT4 (gp): 34%
[1]; 10 µM
  % Inhibition at 10 µM, 5-HT4 (gp): 74%
[2]; 1 µM (value in brackets)
  % Inhibition at 1 µM, 5-HT7 (hu): 39%
[2]; 10 µM
  % Inhibition at 10 µM, 5-HT7 (hu): 91%
[3]
  % Inhibition at 10 µM, 5-HT1B (hu): 19%
Human 5-HT2AR [4]
  Ki: 800 nM
Human 5-HT2BR
  Ki: 6 nM
5-HT2CR [5]
  Ki: 60 nM
Human 5-HT2AR [6]
  IC50: > 10000 nM
5-HT2CR [7]
  IC50: 3100 nM
[8]
  IC50: 3780 nM
